Measurements taken from patent US6969763B1, “Molecular interaction sites of interleukin-2 RNA and methods of modulating the same” (priority 1999, dated 2005).
Values after ≈ are worked out from the molar mass of the structure shown. Where two headings read alike, the source gives them in different places.

Legend:
[1] = test system: HIV TAR RNA structure in the 5'-UTR of luciferase mRNA; experiment: wheat germ lysate translation of luciferase mRNA containing the TAR RNA structure in the 5'-UTR; format: biochemical
Source text: It is believed that stabilization of mRNA structures near the 5′-cap also could be effected by specific “small” molecules, and that such binding would reduce the translational efficiency of the mRNA. To test this hypothesis, a plasmid was constructed containing the luciferase message behind a 5′-UTR containing a 27-mer RNA construct of the HIV TAR stem-loop bulge whose structure had been determined by NMR. The resulting mRNA could be expressed and capped in a wheat germ lysate translation system supplemented with T7 polymerase following addition of m^7G to the lysate (see, FIG. 38A). Insertion of a 9-base leader before the TAR structure (HIVluc+9) enhanced the translational efficiency, presumably by allowing the pre-initiation complex to form. The helicase activity associated with the pre-initiation complex can transiently melt out the TAR RNA structure, and the message is translated (see, FIG. 38A).

luciferase mRNA = experiment: wheat germ lysate translation of control luciferase mRNA (luc+9); format: biochemical; conditions: in words
Source text: It is believed that stabilization of mRNA structures near the 5′-cap also could be effected by specific “small” molecules, and that such binding would reduce the translational efficiency of the mRNA. To test this hypothesis, a plasmid was constructed containing the luciferase message behind a 5′-UTR containing a 27-mer RNA construct of the HIV TAR stem-loop bulge whose structure had been determined by NMR.

TAR = conditions: in words, assay not described
TAR RNA / tat peptide = experiment: disruption of TAR RNA interaction with tat peptide; format: binding, HIV
E. coli = experiment: high throughput screening assay for antibacterial activity (MIC); format: cell-based; conditions: Escherichia coli, read-out: minimum inhibitory concentrations (MIC's)
Source text: This activity was verified by manual solution synthesis of analytically pure material as described in Example 6 above, which had identical activity.

[2] = test system: 18S rRNA A-site 27-mer RNA model; experiment: ESI-FTICR mass spectrometry binding to mass-tagged 18S A-site 27-mer RNA model; design: species or system eukaryotic; conditions: aminoglycosides 500 nM each, in words
Protocol: The ESI-FTICR mass spectrum depicted in FIG. 70 was acquired from a […] mixture of untagged 16S and tagged 18S in the presence of an equimolar mixture of five aminoglycosides. It is to be understood that other biomolecules may be used in place of the aminoglycosides. The aminoglycosides have been selected from two classes of 2-deoxystreptamines: 4,5-disubstituted (paromomycin, and lividomycin), and 4,6-disubstituted (tobramycin, sisomicin, and bekanamycin), present at 500 nM each. Complexes corresponding to 1:1 binding of individual aminoglycosides were observed between 16S and all members of the aminoglycoside mixture, with the apparent affinities estimated from the abundances of the respective complexes differing substantially. Signal intensities from the complexes with paromomycin (m/z 1925.572) and lividomycin (m/z 1954.790) are consistent with MS-measured dissociation constants of 110 nM and 28 nM, respectively. The intensities of 16S complexes with tobramycin (m/z 1895.960), bekanamycin (m/z 1899.171), and sisomicin (m/z 1891.972) were reduced, consistent with solution dissociation constants of […]. Wang, et al., Biochemistry, 1997, 36, 768-779. […] The average mass measurement error obtained for the complexes in FIG. 70 is 2.1 ppm when m/z differences are measured between the most abundant (4 ^13C) isotope peak of 16S and each complex. […]

[3] = molecular target: decoding region of the prokaryotic 16S rRNA (the A-site); conditions: 16S A-site, read-out: solution dissociation constant (literature), cited from earlier work
[4] = test system: translation of a luciferase plasmid; experiment: transcription/translation assay based on expression of a luciferase plasmid; format: biochemical; conditions: inhibition of translation of a luciferase plasmid
Protocol: (§1) The compounds are screened for binding affinity using MASS or conventional high-throughput functional screens. […] The MASS assay was performed with the 27-mer model RNA sequence of the 16S A-site whose NMR structure has been determined. The transcription/translation assay was based on expression of a luciferase plasmid.
(§2) Paromomycin is an aminoglycoside antibiotic known to bind to the A-site RNA structure. The NMR structure was determined with paromomycin bound at the A-site.

[5] = molecular target: 16S rRNA A-site 27-mer RNA model; experiment: ESI-FTICR mass spectrometry (MASS) binding to 16S A-site 27-mer RNA model; design: species or system prokaryotic; conditions: for Kd: 16S A site 27mer, read-out: MS-measured dissociation constant (KD); for complex formation with 16S A site RNA: aminoglycosides 500 nM each, in words
Protocol: The ESI-FTICR mass spectrum depicted in FIG. 70 was acquired from a […] mixture of untagged 16S and tagged 18S in the presence of an equimolar mixture of five aminoglycosides. It is to be understood that other biomolecules may be used in place of the aminoglycosides. The aminoglycosides have been selected from two classes of 2-deoxystreptamines: 4,5-disubstituted (paromomycin, and lividomycin), and 4,6-disubstituted (tobramycin, sisomicin, and bekanamycin), present at 500 nM each. Complexes corresponding to 1:1 binding of individual aminoglycosides were observed between 16S and all members of the aminoglycoside mixture, with the apparent affinities estimated from the abundances of the respective complexes differing substantially. Signal intensities from the complexes with paromomycin (m/z 1925.572) and lividomycin (m/z 1954.790) are consistent with MS-measured dissociation constants of 110 nM and 28 nM, respectively. The intensities of 16S complexes with tobramycin (m/z 1895.960), bekanamycin (m/z 1899.171), and sisomicin (m/z 1891.972) were reduced, consistent with solution dissociation constants of […]. Wang, et al., Biochemistry, 1997, 36, 768-779. […] The spectrum is calibrated using multiple isotope peaks of the (M−5H^+)^5- and (M−4H^+)^4- charge states of the free RNA as internal mass standards which brackets the m/z range in which complexes are observed. The average mass measurement error obtained for the complexes in FIG. 70 is 2.1 ppm when m/z differences are measured between the most abundant (4 ^13C) isotope peak of 16S and each complex. This post calibration scheme is easily automated which enables rapid, high precision mass measurements of affinity selected ligands against multiple targets in a high throughput mode.
ESI-MS measurements of a solution containing a fixed concentration of RNA at different concentrations of ligand were obtained. By measuring the ratio of bound:unbound RNA at varying ligand concentrations, the Kd was determined by 1/slope of the “titration curve”. The MS derived value of 110 nM is in good agreement with previously reported literature value of 200 nM.
Paromomycin, lividomycin (MW=761.354 Da), sisomicin (MW=447.269 Da), tobramycin (MW=467.2591 Da), and bekanamycin (MW=483.254 Da) were obtained from Sigma (St. Louis, Mo.) and ICN (Costa Mesa, Calif.) and were dissolved to generate 10 mM stock solutions. 2′ methoxy analogs of RNA constructs representing the prokaryotic (16S).rRNA and eukaryotic (18S) rRNA A-site (FIG. 68) were synthesized in house and precipitated twice from 1 M ammonium acetate following deprotection with ammonia (pH 8.5). The mass-tagged constructs contained an 18-atom mass tag (C12H25O9) attached to the 5′-terminus of the RNA oligomer through a phosphodiester linkage.
All mass spectrometry experiments were performed using an Apex 11 70e electrospray ionization Fourier transform ion cyclotron resonance mass spectrometer (Bruker Daltonics, Billerica) employing an actively shielded 7 tesla superconducting magnet. RNA solutions were prepared in 50 mM NH4OAc (pH 7), mixed 1: v:v with isopropanol to aid desolvation, and infused at a rate of […] using a syringe pump. Ions were formed in a modified electrospray source (Analytica, Branford) employing an off axis, grounded electrospray probe positioned ca. 1.5 cm from the metalized terminus of the glass desolvation capillary biased at 5000 V. A counter-current flow of dry oxygen gas heated to 225° C. was employed to assist in the desolvation process. Ions were accumulated in an external ion reservoir comprised of an RF-only hexapole, a skimmer cone, and an auxiliary electrode for 1000 ms prior to transfer into the trapped ion cell for mass analysis. Each spectrum was the result of the coaddition of 16 transients comprised of 256 datapoints acquired over a 90,909 kHz bandwidth resulting in a 700 ms detection interval. […]

[6] = molecular target: 27-mer model RNA sequence of the 16S A-site; experiment: MASS assay with the 27-mer model RNA sequence of the 16S A-site (Table 6); format: binding; conditions: 27-mer model RNA of the 16S A-site
Protocol: as §1, §2

Q: With `CNc1ccc(NCCO)c2c1C(=O)c1ccccc1C2=O` [ACD 00001199] as the compound, how does the “inhibition of translation of luciferase mRNA containing TAR RNA structure” value ([1]; in words) read?
A: Its value is “dose-dependent inhibition of translation”.

Q: What about the IC50 ([1]; luciferase mRNA containing the TAR RNA structure in the 5'-UTR, read-out: concentration reducing translation by 50%) of the same compound?
A: The IC50 was 50000 nM.

Q: What about the “inhibition of translation of the luciferase mRNA (control)” value (luciferase mRNA) of the same compound?
A: Its value is “some inhibition of translation at very high concentrations”.

Q: What about the “IC5, values” (TAR) of the same compound?
A: Its value is “low”.

Q: What about the “concentration disrupting the TAR RNA interaction with tat peptide” value (TAR RNA / tat peptide) of the same compound?
A: The value was 1 µM.

Q: For `O=C(NO)[C@@H](Cc1ccc2ccccc2c1)NS(=O)(=O)c1ccc2ccccc2c1` [Compound 5-n-ii, (2R)-3-(2-naphthyl)-2-((2-naphthylsulfonyl)amino)propanehydroxamic acid], which MIC (E. coli) is on record?
A: The MIC was 0.7 to 1.5 µM (≈ 0.294 to 0.631 µg/mL).

Q: For `O=C(NO)[C@@H](Cc1ccc2ccccc2c1)NS(=O)(=O)c1ccc(Br)cc1` [Compound 5n-vi, (2R)-2-(((4-bromophenyl)sulfonyl)amino)-3-(2-naphthyl)propanehydroxamic acid], which MIC (E. coli) is on record?
A: The MIC was 3 to 6 µM (≈ 1.35 to 2.7 µg/mL).

Q: With `NC[C@@H]1O[C@H](O[C@H]2[C@@H](O)[C@H](O[C@@H]3[C@@H](O)[C@H](N)C[C@H](N)[C@H]3O[C@H]3O[C@H](CO)[C@@H](O)[C@H](O)[C@H]3N)O[C@@H]2CO)[C@H](N)[C@@H](O)[C@@H]1O` [Paromomycin] as the compound, how does the “complex formation with 18S A site RNA” value [2] read?
A: Its value is “complete absence of complexes”.

Q: And the Kd ([3]; listed as paromomycin)?
A: The Kd was 200 nM.

Q: And the Kd [3]?
A: Its Kd is ~200 nM.

Q: What about the “Activity^1” value [4] of the same compound?
A: The value was 0.3 µM.

Q: What about the Kd [5] of the same compound?
A: Its Kd is 110 nM.

Q: And the “complex formation with 16S A site RNA” value [5]?
A: The value was “High affinity complexes”.

Q: What about the Kd [6] of the same compound?
A: Its Kd is 500 nM.

Q: For `NC[C@H]1O[C@H](O[C@H]2[C@H](O)[C@@H](O[C@H]3O[C@H](CO)[C@@H](O)[C@H](N)[C@H]3O)[C@H](N)C[C@@H]2N)[C@H](N)[C@@H](O)[C@@H]1O` [bekanamycin], which “complex formation with 16S A site RNA” value [5] is on record?
A: The value was “Weaker complexes”.

Q: With `NC[C@@H]1O[C@H](O[C@H]2[C@@H](O)[C@H](O[C@@H]3[C@@H](O)[C@H](N)C[C@H](N)[C@H]3O[C@H]3O[C@H](CO)[C@@H](O)C[C@H]3N)O[C@@H]2CO)[C@H](N)[C@@H](O)[C@@H]1O[C@H]1O[C@H](CO)[C@@H](O)[C@H](O)[C@@H]1O` [lividomycin] as the compound, how does the “complex formation with 18S A site RNA” value [2] read?
A: Its value is “complete absence of complexes”.

Q: What about the “enhancement of binding affinity for 16S relative to paromomycin” value [5] of the same compound?
A: Its value is ~4 fold.

Q: And the Kd [5]?
A: Its Kd is 28 nM.

Q: What about the “complex formation with 16S A site RNA” value [5] of the same compound?
A: The value was “High affinity complexes”.

Q: With `CN[C@@H]1[C@@H](O)[C@@H](O[C@@H]2[C@@H](O)[C@H](O[C@H]3OC(CN)=CC[C@H]3N)[C@@H](N)C[C@H]2N)OC[C@]1(C)O` [sisomicin] as the compound, how does the “complex formation with 16S A site RNA” value [5] read?
A: The value was “Weaker complexes”.

Q: Which “complex formation with 16S A site RNA” value [5] does the source give for `NC[C@H]1O[C@H](O[C@H]2[C@H](O)[C@@H](O[C@H]3O[C@H](CO)[C@@H](O)[C@H](N)[C@H]3O)[C@H](N)C[C@@H]2N)[C@H](N)C[C@@H]1O` [tobramycin] here?
A: Its value is “Weaker complexes”.
